The record followed here is ChEMBL document CHEMBL1909558, “Discovery, synthesis and SAR analysis of novel selective small molecule S1P4-R agonists based on a (2Z,5Z)-5-((pyrrol-3-yl)methylene)-3-alkyl-2-(alkylimino)thiazolidin-4-one chemotype” (Bioorg Med Chem Lett, 2011).

A word on the EC50: it is the midpoint of the concentration-response curve.

Assay [1] addresses T1, Sphingosine 1-phosphate receptor 4 (Homo sapiens) (UniProt O95977).
T1 sequence (whole entry): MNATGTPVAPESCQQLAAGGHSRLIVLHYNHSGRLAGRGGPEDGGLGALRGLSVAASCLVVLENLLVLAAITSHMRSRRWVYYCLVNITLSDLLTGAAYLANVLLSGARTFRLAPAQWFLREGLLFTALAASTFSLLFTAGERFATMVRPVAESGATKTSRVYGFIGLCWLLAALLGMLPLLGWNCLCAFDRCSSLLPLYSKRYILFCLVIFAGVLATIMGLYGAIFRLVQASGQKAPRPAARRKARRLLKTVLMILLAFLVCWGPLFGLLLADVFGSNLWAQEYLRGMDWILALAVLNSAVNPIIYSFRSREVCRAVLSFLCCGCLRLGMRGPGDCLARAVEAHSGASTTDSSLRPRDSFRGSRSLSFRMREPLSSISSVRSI
The assay is described as follows: Agonist activity at S1P4 receptor in human U2OS cells expressing VP16-GAL4 transcriptional factor and beta-arrestin/TEV protease fusion protein assessed as migration of VP16-GAL4 into nucleus at 25 uM by FRET based beta lactamase reporter gene assay. Type of assay: functional, cell-based.

In assay [2] the target is T2, Sphingosine 1-phosphate receptor 4 (Homo sapiens, UniProt O95977).
T2 sequence (O95977 whole entry): T1 sequence (whole entry)
Nature of the assay: Agonist activity at S1P4 receptor in human U2OS cells expressing VP16-GAL4 transcriptional factor and beta-arrestin/TEV protease fusion protein assessed as migration of VP16-GAL4 into nucleus by FRET based beta lactamase reporter gene assay. The assay is classed as functional, cell-based. (In general: In a reporter assay the amount or activity of a reporter protein is the signal.)

For assay [3], the target named is Sphingosine 1-phosphate receptor 1 (Homo sapiens, UniProt P21453). Nature of the assay: Agonist activity at S1P1 receptor. Type of assay: functional.
For assay [4], the target named is T3, Sphingosine 1-phosphate receptor 5 (Homo sapiens, UniProt Q9H228). Nature of the assay: Agonist activity at S1P5 receptor relative to control. The assay is classed as functional.
Assay [5] concerns the target T3, Sphingosine 1-phosphate receptor 5. Nature of the assay: Agonist activity at S1P5 receptor. The assay is classed as functional.
In assay [6] the target is Sphingosine 1-phosphate receptor 2 (Homo sapiens, UniProt O95136). Nature of the assay: Agonist activity at S1P2 receptor at 25 uM. The assay is classed as functional.
In assay [7] the target is Sphingosine 1-phosphate receptor 3 (Homo sapiens) (UniProt Q99500). The assay is described as follows: Agonist activity at S1P3 receptor at 25 uM. Type of assay: functional.
Assay [8] concerns the target T1, Sphingosine 1-phosphate receptor 4 (Homo sapiens). The assay is described as follows: Agonist activity at S1P4 receptor relative to control. Type of assay: functional.

The source made the active and inactive calls. The rule behind the calls is not given here.

T3 sequence (Q9H228 whole entry): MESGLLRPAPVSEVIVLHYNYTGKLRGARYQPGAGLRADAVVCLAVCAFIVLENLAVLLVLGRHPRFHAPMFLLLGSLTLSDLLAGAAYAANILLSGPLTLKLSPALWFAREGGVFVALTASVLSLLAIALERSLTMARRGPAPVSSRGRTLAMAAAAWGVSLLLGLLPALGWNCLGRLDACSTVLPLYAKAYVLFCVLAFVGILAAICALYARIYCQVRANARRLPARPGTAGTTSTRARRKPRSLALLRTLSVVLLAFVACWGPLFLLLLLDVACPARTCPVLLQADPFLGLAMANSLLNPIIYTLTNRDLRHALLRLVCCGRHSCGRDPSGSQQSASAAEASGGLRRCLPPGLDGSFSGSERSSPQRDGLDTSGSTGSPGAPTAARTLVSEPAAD
Chain of Sphingosine 1-phosphate receptor 2 (O95136 whole entry): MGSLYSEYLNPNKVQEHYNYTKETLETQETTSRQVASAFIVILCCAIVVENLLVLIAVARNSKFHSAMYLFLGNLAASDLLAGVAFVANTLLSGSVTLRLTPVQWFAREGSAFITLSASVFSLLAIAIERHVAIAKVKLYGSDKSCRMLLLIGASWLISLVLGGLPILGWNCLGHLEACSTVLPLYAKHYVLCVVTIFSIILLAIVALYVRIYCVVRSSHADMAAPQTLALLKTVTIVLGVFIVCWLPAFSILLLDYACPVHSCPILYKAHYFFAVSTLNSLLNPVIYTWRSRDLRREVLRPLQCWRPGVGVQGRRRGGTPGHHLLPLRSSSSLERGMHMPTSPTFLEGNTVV
Chain of Sphingosine 1-phosphate receptor 1 (P21453 whole entry): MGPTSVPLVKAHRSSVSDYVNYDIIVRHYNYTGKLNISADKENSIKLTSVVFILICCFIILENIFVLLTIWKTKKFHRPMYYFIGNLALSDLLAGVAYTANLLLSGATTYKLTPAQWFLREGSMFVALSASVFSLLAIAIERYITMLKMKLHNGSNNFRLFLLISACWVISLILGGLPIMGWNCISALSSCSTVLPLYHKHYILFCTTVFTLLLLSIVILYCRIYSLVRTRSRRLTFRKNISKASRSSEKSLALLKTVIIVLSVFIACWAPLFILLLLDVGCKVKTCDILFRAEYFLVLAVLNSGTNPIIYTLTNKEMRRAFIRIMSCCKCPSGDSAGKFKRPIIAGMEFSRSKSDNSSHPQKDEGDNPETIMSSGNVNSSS
Chain of Sphingosine 1-phosphate receptor 3 (Homo sapiens) (Q99500 whole entry): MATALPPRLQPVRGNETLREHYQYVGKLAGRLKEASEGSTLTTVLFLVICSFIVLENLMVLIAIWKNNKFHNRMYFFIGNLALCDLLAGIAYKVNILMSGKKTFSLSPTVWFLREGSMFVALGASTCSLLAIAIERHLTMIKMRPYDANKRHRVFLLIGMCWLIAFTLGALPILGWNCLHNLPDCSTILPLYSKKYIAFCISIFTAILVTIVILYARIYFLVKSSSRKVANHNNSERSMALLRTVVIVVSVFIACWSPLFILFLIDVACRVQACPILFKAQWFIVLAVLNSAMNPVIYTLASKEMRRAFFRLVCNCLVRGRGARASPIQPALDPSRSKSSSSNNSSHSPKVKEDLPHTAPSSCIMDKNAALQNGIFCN

On to `CCC/N=C1\NC(=O)/C(=C/c2cc(C)n(-c3ccccc3F)c2C)S1`, for which the result in assay [1] was inactive.
Turning to `C/N=C1/NC(=O)/C(=C/c2cnn(-c3ccc(F)cc3)c2C)S1`, the EC50 in assay [2] is 3800 nM.
As for `C/N=C1\S/C(=C\c2cc(C)n(-c3ccccc3F)c2C)C(=O)N1C`, the EC50 stood at 205 nM in assay [2], 819 nM in assay [3] and 721 nM in assay [5]. Further, the Efficacy in assay [4] came out at 70%. Moreover, the outcome in assay [6] and in assay [7] was inactive.
For `C/N=C1\S/C(=C\c2cc(C)n(Cc3ccc(F)cc3F)c2C)C(=O)N1C`, the EC50 in assay [2] turned out to be 147 nM; in assay [3] it was 287 nM; in assay [5], 37 nM. Further, the result in assay [6] and in assay [7] was inactive.
Take `C/N=C1\S/C(=C\c2cc(C)n(-c3cc(C)ccc3OC)c2C)C(=O)N1C`: the outcome in assay [1] was inactive.
Turning to `C/N=C1\S/C(=C\c2cc(C)n(-c3ccccn3)c2C)C(=O)N1C`, the 50% effective concentration (EC50) in assay [2] was found to be 1800 nM.
On to `C/N=C1\S/C(=C\c2cc(C)n(-c3ccccc3Cl)c2C)C(=O)N1C`, for which, in assay [1], the result was inactive.
`CC/N=C1\NC(=O)/C(=C/c2cc(C)n(-c3ccccc3F)c2C)S1`: in assay [1], the outcome was inactive.
Take `N[C@H](CNC(=O)c1cc2c(-c3ccccc3Cc3ccccc3)cccc2[nH]1)C(=O)O`: the concentration for a half-maximal effect (EC50) was 10 nM in assay [2], above 10000 nM in assay [3] and 2400 nM in assay [5].
Take `Cc1cc(/C=C2\S/C(=N\C(C)C)N(C(C)C)C2=O)c(C)n1-c1ccccc1F`: the outcome in assay [1] was inactive.
For `CC/N=C1\S/C(=C\c2cc(C)n(-c3cccc4ccccc34)c2C)C(=O)N1CC`, the outcome in assay [1] was inactive.
Turning to `C/N=C1\O/C(=C\c2cc(C)n(-c3ccccc3F)c2C)C(=O)N1C`, the outcome in assay [1] was inactive.
On to `C/N=C1\S/C(=C\c2cc(C)n(-c3ccccc3C)c2C)C(=O)N1C`, for which, in assay [1], the result was inactive.
Consider `Cc1cc(/C=C2\SC(=N)NC2=O)c(C)n1-c1ccccc1F`, for which, in assay [1], the outcome was inactive.
In the case of `C/N=C1\S/C(=C\c2cc(C)n(Cc3ccccc3F)c2C)C(=O)N1C`, the EC50 came out at 72 nM in assay [2], 250 nM in assay [3] and 51 nM in assay [5]. The Efficacy in assay [6] was 60%; in assay [7], 25%.
Turning to `C/N=C1/NC(=O)/C(=C/c2c(C)n(Cc3ccccc3)c3ccccc23)S1`, the result in assay [1] was inactive.
Consider `COCC/N=C1\S/C(=C\c2cc(C)n(Cc3ccccc3)c2C)C(=O)N1CCOC`, for which the outcome in assay [1] was inactive.
On to `CCCCCCCCc1ccc2nc([C@@H](N)COP(=O)(O)O)[nH]c2c1`, for which the results for the EC50 in assay [2], in assay [3] and in assay [5] were 36 nM, 21 nM and 8.2 nM, respectively.
As for `C/N=C1\S/C(=C\c2cc(C)n(-c3ccc(C)cc3C)c2C)C(=O)N1C`, in assay [1], the result was inactive.
Regarding `C/N=C1\S/C(=C\c2cc(C)n(-c3ncccc3F)c2C)C(=O)N1C`, the EC50 in assay [2] is 3100 nM. The Efficacy in assay [8] stood at 70%.
Regarding `C/N=C1/NC(=O)/C(=C/c2cc(C)n(-c3ccccc3F)c2C)S1`, the half-maximal effective concentration (EC50) in assay [2] was found to be 3600 nM.
On to `C/N=C1/NC(=O)/C(=C/c2ccn(Cc3ccccc3)c2)S1`, for which the outcome in assay [1] was inactive.
`Cc1cc(/C=C2\SC(=O)N(C)C2=O)c(C)n1-c1ccccc1F`: the result in assay [1] was inactive.
As to `C/N=C1/NC(=O)/C(=C/c2cnn(-c3ccccc3F)c2)S1`, in assay [1], the result was inactive.
With `C/N=C1\S/C(=C\c2cc(C)n(-c3cccc4ccccc34)c2C)C(=O)N1C`, the outcome in assay [1] was inactive.
Consider `C/N=C1/NC(=O)/C(=C/c2cc(C)n(-c3ccc(F)cc3F)c2C)S1`, for which the EC50 in assay [2] worked out at 1000 nM.
Turning to `C/N=C1\S/C(=C\c2cc(C)n(Cc3c(F)cccc3F)c2C)C(=O)N1C`, the EC50 amounted to 92 nM in assay [2], 34 nM in assay [3] and 34 nM in assay [5]. The Efficacy in assay [6] is 120%; in assay [7], 70%.
On to `CC/N=C1\S/C(=C\c2cc(C)n(-c3ncccc3F)c2C)C(=O)N1CC`, for which, in assay [2], the EC50 was 5400 nM. Also, the Efficacy in assay [8] is 70%.
On to `C/N=C1/NC(=O)/C(=C/c2ccn(-c3ccccc3F)c2)S1`, for which the outcome in assay [1] was inactive.
`CCC/N=C1\S/C(=C\c2cc(C)n(-c3ccccc3F)c2C)C(=O)N1CCC`: in assay [1], the result was inactive.
For the compound `C/N=C1\S/C(=C\c2cc(C)n(-c3ccc(F)cc3F)c2C)C(=O)N1CCOC`, in assay [2], the EC50 stood at 1700 nM.
With `C/N=C1/NC(=O)/C(=C/c2cnn(-c3ccc(F)cc3F)c2)S1`, in assay [1], the outcome was inactive.
Take `C/N=C1\S/C(=C\c2cc(C)n(-c3ccccc3Br)c2C)C(=O)N1C`: the result in assay [1] was inactive.
In the case of `C/N=C1\S/C(=C\c2cc(C)n(-c3ccc(Cl)cc3F)c2C)C(=O)N1C`, the EC50 is 440 nM in assay [2], 3010 nM in assay [3] and 3400 nM in assay [5]. In addition, the result in assay [6] and in assay [7] was inactive.
As to `CC/N=C1\S/C(=C\c2cc(C)n(CCc3ccccc3)c2C)C(=O)N1CC`, in assay [1], the result was inactive.
Regarding `C/N=C1\S/C(=C\c2cc(C)n(CCc3ccccc3)c2C)C(=O)N1C`, the concentration for a half-maximal effect (EC50) in assay [2] is 660 nM. The compound also registered an Efficacy in assay [8] of 20%.
Take `Cc1cc(/C=C2\S/C(=N\CCO)N(C)C2=O)c(C)n1Cc1ccccc1`: in assay [2], the EC50 is 396 nM.
For `Cc1cc(/C=C2\S/C(=N\c3ccccn3)NC2=O)c(C)n1-c1ccccc1F`, the EC50 in assay [2] came to 2100 nM. Besides, the Efficacy in assay [8] came to 70%.
Consider `C/N=C1\S/C(=C\c2cc(C)n(-c3ccc(OC)c(C(F)(F)F)c3)c2C)C(=O)N1C`, for which the result in assay [1] was inactive.
Regarding `CC/N=C1\S/C(=C\c2cc(C)n(-c3ccccc3)c2C)C(=O)N1CC`, the EC50 in assay [2] amounted to 602 nM; in assay [3], 68 nM; in assay [5], 237 nM. In addition, the outcome in assay [6] and in assay [7] was inactive.
Consider `CCCC/N=C1\S/C(=C\c2cc(C)n(-c3ccccc3F)c2C)C(=O)N1CCCC`, for which, in assay [1], the outcome was inactive.
Regarding `CC/N=C1\S/C(=C\c2cc(C)n(-c3ccc(F)cc3F)c2C)C(=O)N1CC`, the EC50 in assay [2] turned out to be 104 nM; in assay [3], 816 nM; in assay [5] it was 6180 nM. In addition, the outcome in assay [6] and in assay [7] was inactive.
Consider `CCCCCCCCc1ccc([C@H]2C[C@H](COP(=O)(O)O)N[C@@H]2CO)cc1`, for which the EC50 in assay [3] is above 10000 nM.
As to `CC/N=C1\S/C(=C\c2cc(C)n(Cc3c(F)cccc3F)c2C)C(=O)N1CC`, the EC50 in assay [2] amounted to 314 nM; in assay [3], 18 nM; in assay [5], 22 nM. The outcome in assay [6] and in assay [7] was inactive.
For the compound `Cc1cc(/C=C2\S/C(=N\c3ccccc3)NC2=O)c(C)n1-c1ccccc1F`, the outcome in assay [1] was inactive.
Regarding `C/N=C1\S/C(=C\c2cc(C)n(-c3ccc(F)c(C#N)c3)c2C)C(=O)N1C`, in assay [2], the EC50 came to 3200 nM. The compound further gave an Efficacy in assay [8] of 50%.
Turning to `C/N=C1\S/C(=C\c2cc(C)n(-c3cccc(F)c3)c2C)C(=O)N1C`, the EC50 in assay [2] amounted to 1600 nM. The Efficacy in assay [8] stood at 60%.
`C/N=C1/NC(=O)/C(=C/c2c(C)nn(-c3ccc(F)cc3)c2C)S1`: the result in assay [1] was inactive.
On to `Cc1cc(/C=C2\S/C(=N\c3ccccc3)N(C)C2=O)c(C)n1-c1ccccc1F`, for which the EC50 in assay [2] is 2800 nM.
